% of control and IC50 data for 5 compounds are collected here from ChEMBL document CHEMBL5212743, “Selectivity Literature for EUbOPEN Chemogenomics Library wave 3” (2023).

Assay [1] deals with NUAK family SNF1-like kinase 2 (Homo sapiens) (UniProt Q9H093). Nature of the assay: Selectivity interaction (KinomeScan (DiscoverX)) EUB0000702a NUAK2. As to conditions: at 1 µM.
For assay [2], the target named is Serine/threonine-protein kinase WNK4 (Homo sapiens) (UniProt Q96J92). As to the kind of experiment: Selectivity interaction (KinomeScan (DiscoverX)) EUB0000702a WNK4. As to conditions: at 1 µM.
The target of assay [3] is Serine/threonine-protein kinase Chk1 (Homo sapiens) (UniProt O14757). Nature of the assay: Selectivity interaction (Kinase panel (University of Dundee)) EUB0000169b CHEK1. As to conditions: at 10 µM.
Assay [4] deals with Dual specificity tyrosine-phosphorylation-regulated kinase 1A (Homo sapiens, UniProt Q13627). As to the kind of experiment: Selectivity interaction (Kinase panel (University of Dundee)) EUB0000169b DYRK1A. As to conditions: at 10 µM.
The target of assay [5] is Calcium/calmodulin-dependent protein kinase kinase 1 (Homo sapiens) (UniProt Q8N5S9). Nature of the assay: Selectivity interaction (KinomeScan (DiscoverX)) EUB0000169b CAMKK1. As to conditions: at 1 µM.
Assay [6] deals with Serine/threonine-protein kinase Nek6 (Homo sapiens) (UniProt Q9HC98). As to the kind of experiment: Selectivity interaction (Kinase panel (University of Dundee)) EUB0000169b NEK6. As to conditions: at 10 µM.
Assay [7] deals with Dual specificity mitogen-activated protein kinase kinase 1 (Homo sapiens, UniProt Q02750). Nature of the assay: Selectivity interaction (Kinase panel (University of Dundee)) EUB0000169b MAP2K1. As to conditions: at 10 µM.
Assay [8] deals with Receptor-type tyrosine-protein kinase FLT3 (Homo sapiens, UniProt P36888). As to the kind of experiment: Selectivity interaction (NanoBRET assay (HEK293T cells)) EUB0000305b FLT3. (In general: BRET reads energy transfer from a luciferase to a nearby fluorophore.)
For assay [9], the target named is T1, Serine/threonine-protein kinase TAO3 (Homo sapiens) (UniProt Q9H2K8).
T1 sequence (whole entry): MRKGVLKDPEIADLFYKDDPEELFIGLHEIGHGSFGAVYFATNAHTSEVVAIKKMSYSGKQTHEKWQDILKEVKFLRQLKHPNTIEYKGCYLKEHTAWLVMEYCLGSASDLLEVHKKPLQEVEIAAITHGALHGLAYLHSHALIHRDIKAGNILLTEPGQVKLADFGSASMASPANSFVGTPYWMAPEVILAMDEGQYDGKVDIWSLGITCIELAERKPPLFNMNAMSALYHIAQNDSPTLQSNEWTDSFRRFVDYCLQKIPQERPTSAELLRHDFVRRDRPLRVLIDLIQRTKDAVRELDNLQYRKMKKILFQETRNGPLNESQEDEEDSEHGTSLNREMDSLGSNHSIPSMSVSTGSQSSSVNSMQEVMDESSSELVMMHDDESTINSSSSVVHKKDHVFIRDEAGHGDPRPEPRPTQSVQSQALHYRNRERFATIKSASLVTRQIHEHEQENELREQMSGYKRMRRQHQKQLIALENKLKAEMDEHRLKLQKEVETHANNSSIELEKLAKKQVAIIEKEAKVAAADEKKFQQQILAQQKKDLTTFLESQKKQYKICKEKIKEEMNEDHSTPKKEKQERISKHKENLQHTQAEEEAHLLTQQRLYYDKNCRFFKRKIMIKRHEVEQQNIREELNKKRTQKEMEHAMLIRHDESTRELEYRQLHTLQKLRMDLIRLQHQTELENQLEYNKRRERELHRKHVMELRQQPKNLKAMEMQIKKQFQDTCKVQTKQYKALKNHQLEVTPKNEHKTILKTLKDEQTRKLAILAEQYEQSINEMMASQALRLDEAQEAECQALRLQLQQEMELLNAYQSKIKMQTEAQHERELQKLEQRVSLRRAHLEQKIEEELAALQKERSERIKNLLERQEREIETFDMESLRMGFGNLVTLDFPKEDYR
As to the kind of experiment: Selectivity interaction (KinomeScan (DiscoverX)) EUB0000178b TAOK3. As to conditions: at 1 µM.

In assay [10] the test system is T2, Receptor-type tyrosine-protein kinase FLT3 (Homo sapiens), P36888 [N841I].
T2 sequence (whole entry): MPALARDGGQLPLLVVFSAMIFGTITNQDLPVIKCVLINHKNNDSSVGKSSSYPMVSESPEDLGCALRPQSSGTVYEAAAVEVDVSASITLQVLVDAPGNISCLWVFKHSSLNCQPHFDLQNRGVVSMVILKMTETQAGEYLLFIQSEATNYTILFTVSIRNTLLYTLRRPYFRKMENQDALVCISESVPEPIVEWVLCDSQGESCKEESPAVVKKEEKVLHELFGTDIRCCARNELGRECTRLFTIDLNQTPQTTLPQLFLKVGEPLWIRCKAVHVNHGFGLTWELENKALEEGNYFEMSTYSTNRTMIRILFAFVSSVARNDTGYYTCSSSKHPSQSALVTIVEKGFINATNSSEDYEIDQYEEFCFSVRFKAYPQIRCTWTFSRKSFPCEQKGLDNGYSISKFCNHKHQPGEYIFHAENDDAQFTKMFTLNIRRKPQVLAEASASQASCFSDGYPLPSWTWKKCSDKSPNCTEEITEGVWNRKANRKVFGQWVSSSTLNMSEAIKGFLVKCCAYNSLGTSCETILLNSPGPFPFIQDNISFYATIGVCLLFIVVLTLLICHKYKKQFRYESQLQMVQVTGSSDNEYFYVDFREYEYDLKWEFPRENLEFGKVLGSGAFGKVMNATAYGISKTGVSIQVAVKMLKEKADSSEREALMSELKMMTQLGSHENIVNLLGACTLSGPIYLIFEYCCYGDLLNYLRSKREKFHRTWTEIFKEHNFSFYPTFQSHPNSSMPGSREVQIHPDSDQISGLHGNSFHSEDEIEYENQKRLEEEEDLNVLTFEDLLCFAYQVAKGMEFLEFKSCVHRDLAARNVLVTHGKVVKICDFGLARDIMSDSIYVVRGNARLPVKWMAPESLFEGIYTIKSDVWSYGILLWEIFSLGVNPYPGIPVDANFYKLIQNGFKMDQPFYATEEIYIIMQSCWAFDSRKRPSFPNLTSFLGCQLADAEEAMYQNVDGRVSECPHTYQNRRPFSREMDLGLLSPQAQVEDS
Nature of the assay: (§1) Selectivity interaction (KinomeScan (DiscoverX)) EUB0000138c FLT3. As to conditions: at 100 nM.

Assay [11] deals with Receptor-type tyrosine-protein kinase FLT3 (Homo sapiens), P36888 [D835H]. Described as §1. As to conditions: at 100 nM.

Chain of Serine/threonine-protein kinase WNK4 (Homo sapiens) (Q96J92 whole entry): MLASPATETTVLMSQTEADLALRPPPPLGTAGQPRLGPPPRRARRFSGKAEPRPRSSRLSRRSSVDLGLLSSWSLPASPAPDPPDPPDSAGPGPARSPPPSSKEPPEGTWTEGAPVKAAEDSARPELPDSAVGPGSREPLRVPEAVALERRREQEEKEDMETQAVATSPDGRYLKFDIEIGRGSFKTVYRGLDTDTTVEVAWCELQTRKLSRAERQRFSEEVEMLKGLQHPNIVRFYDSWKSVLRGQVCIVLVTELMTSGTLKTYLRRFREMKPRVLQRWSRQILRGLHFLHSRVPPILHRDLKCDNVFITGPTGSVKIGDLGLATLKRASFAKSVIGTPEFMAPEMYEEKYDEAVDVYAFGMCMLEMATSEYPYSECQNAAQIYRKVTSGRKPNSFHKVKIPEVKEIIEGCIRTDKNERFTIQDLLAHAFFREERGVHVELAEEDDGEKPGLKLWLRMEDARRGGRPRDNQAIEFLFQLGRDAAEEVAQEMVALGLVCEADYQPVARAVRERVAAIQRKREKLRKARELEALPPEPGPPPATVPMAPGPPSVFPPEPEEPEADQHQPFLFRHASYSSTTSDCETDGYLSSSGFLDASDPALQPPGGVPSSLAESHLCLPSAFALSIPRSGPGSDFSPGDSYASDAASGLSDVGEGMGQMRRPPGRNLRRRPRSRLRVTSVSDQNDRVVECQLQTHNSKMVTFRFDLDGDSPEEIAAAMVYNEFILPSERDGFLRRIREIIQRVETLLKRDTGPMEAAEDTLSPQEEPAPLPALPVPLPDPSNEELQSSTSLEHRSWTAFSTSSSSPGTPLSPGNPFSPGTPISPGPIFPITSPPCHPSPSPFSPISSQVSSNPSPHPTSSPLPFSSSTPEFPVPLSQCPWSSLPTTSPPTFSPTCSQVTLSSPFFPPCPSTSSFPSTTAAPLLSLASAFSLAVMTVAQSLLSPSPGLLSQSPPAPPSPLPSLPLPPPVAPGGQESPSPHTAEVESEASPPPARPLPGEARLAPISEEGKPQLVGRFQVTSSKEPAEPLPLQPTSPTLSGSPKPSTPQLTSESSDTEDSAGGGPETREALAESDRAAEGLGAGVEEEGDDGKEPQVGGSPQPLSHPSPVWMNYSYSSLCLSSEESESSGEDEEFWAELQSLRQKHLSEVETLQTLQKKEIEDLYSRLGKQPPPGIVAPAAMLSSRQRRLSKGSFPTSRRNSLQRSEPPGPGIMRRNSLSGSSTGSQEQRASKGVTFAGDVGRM
Chain of NUAK family SNF1-like kinase 2 (Homo sapiens) (Q9H093 whole entry): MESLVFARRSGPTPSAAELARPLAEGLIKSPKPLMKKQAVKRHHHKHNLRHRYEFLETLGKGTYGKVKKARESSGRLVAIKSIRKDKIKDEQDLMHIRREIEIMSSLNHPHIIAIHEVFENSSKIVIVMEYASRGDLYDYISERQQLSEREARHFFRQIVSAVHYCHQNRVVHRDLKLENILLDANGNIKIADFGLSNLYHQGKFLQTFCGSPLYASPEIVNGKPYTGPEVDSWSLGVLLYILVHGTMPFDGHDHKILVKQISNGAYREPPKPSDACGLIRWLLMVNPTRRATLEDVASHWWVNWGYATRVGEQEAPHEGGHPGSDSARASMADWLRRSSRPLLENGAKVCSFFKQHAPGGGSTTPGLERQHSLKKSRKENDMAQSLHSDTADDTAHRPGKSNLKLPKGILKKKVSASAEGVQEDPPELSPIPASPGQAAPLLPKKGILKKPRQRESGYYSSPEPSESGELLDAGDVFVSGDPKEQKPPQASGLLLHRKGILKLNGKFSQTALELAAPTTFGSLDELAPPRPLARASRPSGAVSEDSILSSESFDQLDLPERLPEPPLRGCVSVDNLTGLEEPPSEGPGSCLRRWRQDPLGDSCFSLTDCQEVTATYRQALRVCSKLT
Chain of Calcium/calmodulin-dependent protein kinase kinase 1 (Homo sapiens) (Q8N5S9 whole entry, looked up): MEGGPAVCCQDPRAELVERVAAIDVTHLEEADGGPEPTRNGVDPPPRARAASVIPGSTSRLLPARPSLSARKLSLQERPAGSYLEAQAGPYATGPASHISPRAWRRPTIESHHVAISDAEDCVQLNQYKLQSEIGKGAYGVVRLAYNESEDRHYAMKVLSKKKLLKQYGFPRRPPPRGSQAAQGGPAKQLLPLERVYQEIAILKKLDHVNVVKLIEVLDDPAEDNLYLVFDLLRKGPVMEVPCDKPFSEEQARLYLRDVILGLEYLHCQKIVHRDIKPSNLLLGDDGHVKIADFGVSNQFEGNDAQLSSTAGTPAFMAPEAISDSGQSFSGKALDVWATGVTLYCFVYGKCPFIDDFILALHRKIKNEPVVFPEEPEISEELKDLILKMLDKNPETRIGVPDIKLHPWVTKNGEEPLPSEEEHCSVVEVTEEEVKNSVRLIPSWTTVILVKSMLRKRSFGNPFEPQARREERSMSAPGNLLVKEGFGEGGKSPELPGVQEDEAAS
Chain of Dual specificity mitogen-activated protein kinase kinase 1 (Q02750 whole entry): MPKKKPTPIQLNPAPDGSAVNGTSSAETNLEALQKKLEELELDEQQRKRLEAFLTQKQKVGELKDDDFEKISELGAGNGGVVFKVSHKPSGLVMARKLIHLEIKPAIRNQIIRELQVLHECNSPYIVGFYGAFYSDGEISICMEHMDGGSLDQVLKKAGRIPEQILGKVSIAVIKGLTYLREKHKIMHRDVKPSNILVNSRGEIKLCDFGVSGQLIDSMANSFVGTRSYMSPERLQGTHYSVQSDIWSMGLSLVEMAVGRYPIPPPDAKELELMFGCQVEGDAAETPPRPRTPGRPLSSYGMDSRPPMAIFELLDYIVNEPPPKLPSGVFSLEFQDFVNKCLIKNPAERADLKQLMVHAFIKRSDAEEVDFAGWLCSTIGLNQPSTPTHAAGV
Chain of Serine/threonine-protein kinase Nek6 (Homo sapiens) (Q9HC98 whole entry): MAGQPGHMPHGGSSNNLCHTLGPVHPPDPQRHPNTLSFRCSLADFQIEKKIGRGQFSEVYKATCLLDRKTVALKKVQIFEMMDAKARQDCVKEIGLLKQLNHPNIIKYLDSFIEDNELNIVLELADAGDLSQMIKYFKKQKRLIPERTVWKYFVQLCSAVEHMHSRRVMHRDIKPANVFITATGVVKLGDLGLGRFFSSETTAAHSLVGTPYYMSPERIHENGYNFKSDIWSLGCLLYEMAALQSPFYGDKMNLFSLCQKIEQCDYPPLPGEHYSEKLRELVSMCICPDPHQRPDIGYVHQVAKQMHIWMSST
Chain of Serine/threonine-protein kinase Chk1 (Homo sapiens) (O14757 whole entry): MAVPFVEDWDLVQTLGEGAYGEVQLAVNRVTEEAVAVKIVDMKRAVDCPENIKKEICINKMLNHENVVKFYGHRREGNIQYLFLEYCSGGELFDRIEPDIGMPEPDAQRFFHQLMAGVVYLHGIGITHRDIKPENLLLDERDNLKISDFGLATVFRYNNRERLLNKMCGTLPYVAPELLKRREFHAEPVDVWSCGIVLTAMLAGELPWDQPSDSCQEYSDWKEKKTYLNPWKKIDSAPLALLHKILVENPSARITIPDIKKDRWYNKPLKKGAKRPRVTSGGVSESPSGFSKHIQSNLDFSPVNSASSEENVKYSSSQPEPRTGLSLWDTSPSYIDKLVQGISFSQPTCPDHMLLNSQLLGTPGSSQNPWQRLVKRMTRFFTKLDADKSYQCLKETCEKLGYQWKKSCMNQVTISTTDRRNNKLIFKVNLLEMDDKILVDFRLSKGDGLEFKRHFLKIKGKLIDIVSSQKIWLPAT

`CN(c1ccnc(CNc2nc(Nc3ccc4c(c3)CC(=O)N4)ncc2C(F)(F)F)n1)S(C)(=O)=O` [PF-00911705]: the % of control in [1] turned out to be 7.6%; in assay [2] it was 0%.
In the case of `CC[C@@H]1C(=O)N(C)c2cnc(Nc3ccc(C(=O)NC4CCN(C)CC4)cc3OC)nc2N1C1CCCC1`, the % of control was 91% in assay [3]; 72% in assay [4]; 3.7% in assay [5]; 110% in assay [6]; 115% in assay [7].
With `C[C@H](c1ccnc(Nc2nc3ccc(-c4cc(N(C)C)ncn4)cc3[nH]2)c1)N1CCN(C(=O)CC(F)(F)F)CC1` [BAY-985], the IC50 in assay [8] was > 20 µM.
As for `CN1C(=O)c2sccc2N(C)c2nc(Nc3ccc(S(N)(=O)=O)cc3)ncc21`, the % of control in assay [9] stood at 4.5%.
Consider `CNC(=O)c1ccc(Nc2ncc(C(F)(F)F)c(NCc3nccnc3N(C)S(C)(=O)=O)n2)cc1` [DEFACTINIB], for which the % of control in assay [10] came out at 0%; in assay [11], 99.8%.

The term IC50 denotes the concentration needed to halve the response being measured. Low values mean greater potency, high ones weaker potency.
